The data set relates to Hela cells. As to the kind of experiment: Penetration of cationic oligonucleotides into cells (fluorescence microscopy, propidium iodide). Type of data set: cell-based. Particulars: for Cell fluorescence after incubation (penetration into cells): 2 μM, four hours, serum-free MEM, no carrier. As for the experimental part:
Hela cells, grown in 10% (v/v) fetal calf serum containing MEM medium, were plated at 50-60×10^3 cells/well into 4-well chambered borosilicate Lab-Tek dishes one day prior to the experiment. Complete medium was replaced by 0.5 ml serum-free MEM medium. A 5′-cationic fluorescein-conjugated oligonucleotide F—S18N19 (where N19 is TCGAAGTACTCAGCGTAAG (SEQ ID NO:7)) formulation was prepared in sterile PBS. It was added to the cells to a final concentration of 2 μM. Four hours later, the medium was replaced by 1 ml of fresh serum-containing medium. A first picture was taken with a Zeiss axiovert 25 fluorescence microscope, equipped with a FITC filter (FIG. 14A, left). […] After 24 h, the medium was replaced with 1 ml of phenol red-free MEM medium. Propidium iodide (1 mM in water) was added to a final concentration of 10 μM.

Consider “F—N19: control fluorescein oligonucleotide without spermine, N19 is TCGAAGTACTCAGCGTAAG (5' fluorescein conjugate, no spermine, further chemistry not given here) [reference compound]”, for which the “Cell fluorescence after incubation (penetration into cells)” value was “no fluorescence”. Consider “F—S18N19: 5′-cationic fluorescein-conjugated oligonucleotide, N19 is TCGAAGTACTCAGCGTAAG, 18 spermine residues (5' fluorescein and 18 spermine residues attached, backbone chemistry not given here)”, for which the “Cell fluorescence after incubation (penetration into cells)” value is “All cells became fluorescent”. Moreover, the “Propidium iodide exclusion and retained fluorescence” value (after 24 h, propidium iodide 10 μM) was “majority of propidiumless healthy cells that were still fluorescent”.
